Values quoted from earlier work in patent EP4759820A1, “METHOD FOR PRODUCING PEPTIDE COMPOUND USING STAND-ALONE-TYPE CONDENSING AGENT” (CHUGAI SEIYAKU KABUSHIKI KAISHA, priority 2023, dated 2025).

Settings: conjugate acid of the base; water as solvent, 25°C; literature reference given with each value

| pKa | SMILES |
| --- | --- |
| 7.38 | CN1CCOCC1 [N-methylmorpholine] |

Same assay, conditions: representative additives; water as solvent, 25°C; literature reference given with each value

| pKa | SMILES |
| --- | --- |
| 8.2 | ON=c1[nH]cc[nH]1 [1,3-Dihydro-2H-imidazol-2-one oxime] |
| 8.7 | NC(=O)C(=NO)c1nccs1 [2(Hydroxyimino)-2-(thiazol-2-yl)acetamide] |
| 5.6 | C[n+]1ccccc1C(=NO)c1ccccn1.[I-] [2-((Hydroxyimino)(pyridin-2-yl)methyl)-1-methylpyridin-1-iumiodide] |
| 9.4 | NC(=O)C(=NO)c1cnccn1 [2-(Hydroxyimino)-2-(pyrazin-2-yl)acetamide] |
| 9.4 | NC(=O)C(=NO)c1ncccn1 [2-(Hydroxyimino)-2-(pyrimidin-2-yl)acetamide] |
| 9.4 | CS(=O)(=O)C(=NO)[S+](N)[O-] (stereo not shown) [(Hydroxyimino)(methylsulfonyl)methanesulfinamide] |
| 7.1 | ON=C1c2ccccc2C(=NO)c2ccccc21 [Anthracene-9,10-dionedioxime] |
| 7.2 | CC(C)OC(=O)C(=NO)C(=O)OC(C)C [Diisopropyl 2-(hydroxyimino)malonate] |
| 9.6 | CCOC(=O)C(=NO)c1ccco1 [Ethyl 2-(furan-2-yl)-2-(hydroxyimino)acetate] |
| 4.7 | CCOC(=O)C(NO)[N+](=O)[O-] (stereo not shown) [Ethyl 2-(hydroxyamino)-2-nitroacetate] |
| 9.6 | CCOC(=O)C(=NO)c1ccccn1 [Ethyl 2-(hydroxyimino)-2-(pyridine-2-yl)acetate] |
| 9.6 | CCOC(=O)C(=NO)c1ncccn1 [Ethyl 2-(hydroxyimino)-2-(pyrimidin-2-yl)acetate] |
| 9.6 | CCOC(=O)C(=NO)c1cccs1 [Ethyl 2-(hydroxyimino)-2-(thiophen-2-yl)acetate] |
| 5.8 | CCOC(=O)C(=NO)S(N)(=O)=O [Ethyl 2-(hydroxyimino)-2-sulfamoylacetate] |
| 9.6 | CCOC(=O)C(=NO)c1ccc[nH]1 [Ethyl 2-(hydroxyimino)-(1H-pyrrol-2-yl)acetate] |
| 5.8 | O=c1c2ncccc2ncn1O [HODhad, 3-Hydroxypyrido[3,2-d]pyrimidin-4(3H)-one] |
| 8.3 | O=C1Cc2ccccc2N1O [HOI, 1-Hydroxyindolin-2-one] |
| 7.7 | O=C1CCC(=O)N1O [HOSu, 1-Hydroxypyrrolidine-2,5-dione] |
| 8.2 | N#CC(=NO)c1ccccc1 [Hydroxyimino-2-phenylacetonitrile] |
| 12.5 | ON=C1NCCN1 [Imidazolidin-2-one oxime] |
| 7.7 | NC(=O)C(NO)C(=O)N(O)O (stereo not shown) [N',N'-Dihydroxy-2-(hydroxyamino)malonamide] |
| 7.6 | O=[N+]([O-])C(=NO)c1ccccc1 [Nitro(phenyl)methanone oxime] |
| 6.6 | ON=c1[nH]cco1 [Oxazol-2(3H)-one oxime] |
| 12.5 | ON=C1NCCO1 [Oxazolidin-2-one oxime] |
| 4.60 | CCOC(=O)C(C#N)=NO [oxyma, ethyl 2-cyano-2-(hydroxyimino)acetate] |

More lines, now with the values behind:

| SMILES | pKa |
| --- | --- |
| CN(C)[S+]([O-])C(=NO)c1ccccc1 (stereo not shown) [1-(Hydroxyimino)-N,N-dimethyl-1-phenylmethanesulfinamide] | 7.4 |
| O=[N+]([O-])C(CCc1ccccc1)=NO [1-Nitro-3-phenylpropan-1-oneoxime] | 7.4 |
| NC(=O)C(=NO)c1ccco1 [2-(Furan-2-yl)-2-(hydroxyimino)acetamide] | 9.4 |
| NC(=O)C(=NO)c1ccc[nH]1 [2-(Hydroxyimino)-2-(1H-pyrrol-2-yl)acetamide] | 9.4 |
| CS(=O)(=O)C(=NO)C(N)=O [2-(Hydroxyimino)-2-(methylsulfonyl)acetamide] | 9.4 |
| NC(=S)C(=NO)c1ncccn1 [2-(Hydroxyimino)-2-(pyrimidin-2-yl)ethanethioamide] | 10.5 |
| NC(=O)C(=NO)c1cccs1 [2-(Hydroxyimino)-2-(thiophen-2-yl)acetamide] | 9.4 |
| C#CC(=NO)C(N)=O [2-(Hydroxyimino)but-3-ynamide] | 9.4 |
| NC(=O)C(=NO)C(N)=O [2-(Hydroxyimino)malonamide] | 9.4 |
| CN1C(=O)C(=NO)c2ccccc21 [3-(Hydroxyimino)-1-methylindolin-2-one] | 9.4 |
| O=C1C(=NO)c2ccccc2N1c1ccccc1 [3-(Hydroxyimino)-1-phenylindoline-2-one] | 9.0 |
| ON=C1c2ccccc2-c2ccccc21 [9H-Fluoren-9-one oxime] | 11.1 |
| CC(=NO)C(C)=NO [Butane-2,3-dionedioxime] | 12.1 |
| CCOC(=O)C(NO)C(=O)OCC [Diethyl 2-(hydroxyamino)malonate] | 7.2 |
| CCOC(=O)C(=NO)S(=O)(=O)C(F)(F)F [Ethyl 2-(hydroxyimino)-2-((trifluoromethyl)sulfonyl)acetate] | 4.2 |
| CCOC(=O)C(=NO)c1cnccn1 [Ethyl 2-(hydroxyimino)-2-(pyrazin-2-yl)acetate] | 9.4 |
| CCOC(=O)C(=NO)c1ccncc1 [Ethyl 2-(hydroxyimino)-2-(pyridine-4-yl)acetate] | 9.6 |
| C#CC(=NO)C(=O)OCC [Ethyl 2-(hydroxyimino)but-3-ynoate] | 9.6 |
| NC(=NO)c1cnccn1 [N'-Hydroxypyrazine-2-carboximidamide] | 12.5 |
| CC(C)(C)OC(=O)C(C#N)=NO [tert-Butyl 2-cyano-2-(hydroxyimino)acetate] | 4.60 |
